# “Also recorded” adds a separate entry of the source.
# Legend:
# [1] = test system: type 1 (non-neuronopathic) Gaucher disease; conditions: type 1 Gaucher disease; cited from earlier work
# [2] = test system: Gaucher mice; assay: Main treatment experiments: plasma/serum protein electrophoresis and immunofixation (monoclonal immunoglobulin species); assay type: in vivo, mouse; conditions: for detectable monoclonal paraprotein species: GD mice, early administration from six weeks of age; for M-protein (number of mice): 300 mg/Kg daily months 1.5-12
# Description: (§1) Plasma/serum protein electrophoresis was carried out in agarose gels using a semiautomatic system (Hydrasys, Sebia) using 10 μL samples of neat serum or plasma. Immunofixation using polyclonal anti-sera raised against murine heavy and light immunoglobulin chains was conducted with diluted serum samples as previously reported.
# (§2) The non-parametric Mann-Whitney test was used for between-groups comparisons. The Fisher's exact test was used for comparison of the occurrence of lymphoma or plasma paraprotein in treated and untreated groups. Statistical analyses were conducted using GraphPad Prism v5.0 software.
# [3] = test system: plasma ceramide; assay: Main treatment experiments in GD mice: plasma ceramide; assay type: in vivo, mouse; conditions: GD mice receiving the high dose
# Description: (§3) The inducible mouse model of type 1 Gaucher disease [Gba^tm1Karl/tm1KarlTg (Mx1-cre) 1Cgn/0 (MGI:3687965; MGI:2176073)[41]. The mating, induction with polyinosinic-polycytidylic (poly I:C) acid sodium salt solution and genotyping were conducted as previously described. Animals of genotype Gba^tm1Karl/tm1KarlTg (Mx1-cre) 1Cgn/0 are referred GD mice; induced mice with the Gba^tm1Karl/tm1Karl and Gba^tm1Karl/+ genotypes and background strain wild type animals served as age-matched controls. All mice here reported had been bred on a C57BL/6 and 129/sv background.
# GENZ 112638 was introduced at a mean age of 1.5 months, with access to the diet and water ad libitum. […] The health of the animals was checked daily; body weights and food consumption were monitored at intervals of three days. The humane endpoints were approved and established: (i) reduction of 20% or more of the greatest recorded body weight or (ii) the development of adverse manifestations (e.g. development of frank tumours or cachexia).
# (§4) Concentrations of β-D-glucosylceramide in plasma in the short-term tolerability study were conducted as previously published. β-D-glucosylceramide, β-D-glucosylsphingosine and ceramide concentrations in tissues and plasma samples of the principal intervention and delayed-treatment experiments were quantified as previously reported.
# [4] = target: T1, UDP-glucosylceramide synthase (Homo sapiens, UniProt Q16739); conditions: read-out: IC50 (potency, UDP-glucosylceramide synthase); cited from earlier work
# T1 sequence (Q16739 1-394): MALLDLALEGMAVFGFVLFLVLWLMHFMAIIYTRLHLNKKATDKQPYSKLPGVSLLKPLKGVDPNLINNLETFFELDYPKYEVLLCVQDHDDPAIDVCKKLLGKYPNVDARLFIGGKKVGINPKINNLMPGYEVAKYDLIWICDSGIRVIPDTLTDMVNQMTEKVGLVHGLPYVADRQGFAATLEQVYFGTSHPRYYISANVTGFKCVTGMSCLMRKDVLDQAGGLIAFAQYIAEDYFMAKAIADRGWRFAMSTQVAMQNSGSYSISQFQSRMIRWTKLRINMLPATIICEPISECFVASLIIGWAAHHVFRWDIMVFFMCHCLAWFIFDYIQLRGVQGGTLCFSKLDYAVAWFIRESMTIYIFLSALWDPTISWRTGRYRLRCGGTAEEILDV
# [5] = test system: GD mice; assay: Delayed treatment experiments: M protein species (electrophoresis and immunofixation); assay type: in vivo, mouse; conditions: delayed treatment: 300 mg/Kg daily months 7-12, age group 12-18 months
# Description: (§5) To investigate the potential effects of delayed treatment, eight Gaucher mice were exposed to Genz-112638 after 6 months of age. The animals received the drug for 6 months at a dose 300 mg/kg daily and were killed at 12 months of age (FIG. 1). A group of eight matched Gaucher disease control mice were given the base standard diet; these animals were monitored and otherwise treated identically with those animals with delayed exposure to the study drug.
# as §1
# [6] = test system: AKT protein kinase-mammalian target of rapamycin signaling; conditions: polycystic kidney disease; cited from earlier work
# [7] = test system: plasma β-D-glucosylceramide; assay: Main treatment experiments in GD mice: plasma glucosylceramide; assay type: in vivo, mouse
# Description: as §3
# (§6) GENZ 112638 was introduced at a mean age of 1.5 months, with access to the diet and water ad libitum. All experimental animals were housed in individually ventilated cages in groups of up to three mice within the same environmental conditions. The health of the animals was checked daily; body weights and food consumption were monitored at intervals of three days. The humane endpoints were approved and established: (i) reduction of 20% or more of the greatest recorded body weight or (ii) the development of adverse manifestations (e.g. development of frank tumours or cachexia).
# as §4
# [8] = test system: glycosidases and other enzymes involved in sphingolipid metabolism; conditions: in vitro; cited from earlier work
# [9] = test system: intracellular ceramide; conditions: cited from earlier work
# [10] = test system: plasma glucosylceramide; assay: Delayed treatment experiments: plasma glucosylceramide; assay type: in vivo, mouse; conditions: delayed treatment: mean age 7.3 months, 300 mg/kg daily for 5.4 months
# Description: as §5, §4
# [11] = test system: plasma IgG; assay: Total IgG plasma concentrations (ELISA); assay type: in vivo, mouse; conditions: treated GD mice
# Source text: Total IgG ELISA kit (Affimetrix) was used to determine plasma IgG concentrations in selected groups of animals.
# [12] = test system: Gaucher mice; assay: Main treatment experiments: lymphoma incidence in Gaucher mice; assay type: in vivo, mouse
# Description: as §2
# [13] = test system: plasma glucosylsphingosine; assay: Delayed treatment experiments: plasma glucosylsphingosine; assay type: in vivo, mouse; conditions: delayed treatment: mean age 7.3 months, 300 mg/kg daily for 5.4 months
# Description: as §5, §4
# [14] = test system: plasma glucosylceramide (GL-1); assay: Short-term dose-range experiment in GD mice: plasma glucosylceramide; assay type: in vivo, mouse; conditions: 6 week-old GD mice, 150 mg/kg and 300 mg/kg orally for two weeks
# Description: as §3
# The drug GENZ 112638 (Genzyme) was formulated in a standard rodent food (TestDiet) at 0.075% and 0.15% w/w. A group of six GD mice received 150 mg/kg daily, a second group of six GD mice received the drug at 300 mg/kg daily, and eight age-sex matched GD animals were given a base diet (TestDiet). The animals received the drug for 14 days and were then killed for analysis of tissue lipids.
# as §4
# [15] = test system: (GBA^D409/null) knock-in model of Gaucher disease; conditions: 75 or 150 mg/kg daily orally for 10 weeks, cited from earlier work
# [16] = test system: GD mice; assay: Delayed treatment experiments: lymphoid hyperplasia and lymphoma (histology); assay type: in vivo, mouse; conditions: delayed treatment: 300 mg/Kg daily, mean age 7.3 months, 5.4 months, total 9 mice
# Description: as §5
# [17] = test system: individuals with non-neuronopathic Gaucher disease; conditions: Phase III, over two years, oral; cited from earlier work
# [18] = test system: GD mice; assay: Main treatment experiments: histology and immunohistochemistry of tissues; conditions: for plasma-cell (CD138+) infiltration in the red pulp of the spleen: treated versus age-matched untreated GD mice
# Description: A total of 22 induced Gaucher disease mice received GENZ 112638 at 300 mg/kg daily: four mice received the treatment over 3 months, four mice received the drug for 6 months, six mice received the diet for 7-9 months. […] A group of 8 mice received the drug for 10 months and were killed at 14 months of age. To serve as a control group, 45 age- and sex-matched induced Gaucher mice were given a standard diet.
# Visceral organs (spleen, liver, lungs and kidneys) as well as long bones, lymph nodes, and, where relevant, tumours, were collected by dissection and either frozen or fixed in 4% w/v paraformaldehyde or 10% buffered formalin and processed in paraffin-embedded blocks for further analysis. Sample of long bones were fixed in 4% w/v paraformaldehyde and decalcified in EDTA for two weeks. Spleen and liver weights were recorded fresh at post mortem. Samples of venous blood were collected from the tail vein at 3 monthly intervals during the experimental protocol. Complete blood counts (CBC) were determined using an automated haematology analyser (SYSMEX XT 2000i). EDTA plasma or serum samples collected at post mortem were stored at −80° C. until thawed for analysis.
# Paraffin-embedded sections of 3.5 μm were stained routinely with haematoxylin and eosin. Immunohistochemical staining was carried out using rat anti-mouse CD45R/B220 (R&D systems), anti-mouse CD3 (Abcam), CD138 (BD, Pharmingen), rat anti-mouse Mac-3 M3/84 clone (BD, Pharmingen) and rabbit anti-mouse Ki-67 (Abcam) primary antibodies. Staining was realized by the avidin-biotin peroxidase technique (Vectastatin ABC elite kit), and developed using diaminobenzidine with cresyl violet or haematoxylin counterstaining.
# Lymphoproliferation in serial sections of spleen, liver, lungs and kidneys was estimated by a scoring system modified as described by Elmore [42]. Sections were reviewed blindly for lymphoma and lymphoproliferative reactions by a board-certified veterinary pathologist.
# [19] = mouse, in vivo, 300 mg/kg
# Source text: as §6
# [20] = in vivo; cited from earlier work
# [21] = test system: plasma β-D-glucosylsphingosine; assay: Main treatment experiments in GD mice: plasma glucosylsphingosine; assay type: in vivo, mouse; conditions: for plasma glucosylsphingosine: GD mice with intermittent treatment; for reduction of plasma glucosylsphingosine: 300 mg/kg/day
# Description: as §3, §6, §4
# [22] = target: T2, 1-O-acylceramide synthase (Homo sapiens, UniProt Q8NCC3); conditions: cited from earlier work
# T2 sequence (Q8NCC3 34-412): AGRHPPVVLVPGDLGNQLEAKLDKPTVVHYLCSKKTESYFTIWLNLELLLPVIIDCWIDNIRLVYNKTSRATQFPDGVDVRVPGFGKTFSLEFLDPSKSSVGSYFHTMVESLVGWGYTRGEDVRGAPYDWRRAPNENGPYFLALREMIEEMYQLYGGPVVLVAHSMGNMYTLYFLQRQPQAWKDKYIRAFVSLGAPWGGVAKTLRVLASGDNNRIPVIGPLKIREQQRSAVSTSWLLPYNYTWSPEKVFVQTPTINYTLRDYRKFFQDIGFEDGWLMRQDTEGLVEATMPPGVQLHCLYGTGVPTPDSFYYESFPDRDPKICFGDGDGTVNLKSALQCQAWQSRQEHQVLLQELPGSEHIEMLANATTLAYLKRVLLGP
# [23] = age group 0-6 months, total 4 mice
# [24] = age group 7-12 months, total 10 mice
# [25] = age group 13-18 months, total 8 mice
compound,measurement,setting,value
CCCCN1C[C@H](O)[C@@H](O)[C@H](O)[C@H]1CO [N-butyldeoxynojirimycin],therapeutic action in clinical studies,[1],small therapeutic action
"bis{N-[(1R,2R)-2-(2,3-dihydro-1,4-benzodioxin-6-yl)-2-hydroxy-1-(pyrrolidin-1-ylmethyl)ethyl]octanamide} (2R,3R)-2,3-dihydroxybutanedioate [eliglustat tartrate]",detectable monoclonal paraprotein species,[2]; listed as GENZ 112638,suppressed the appearance
same,detectable monoclonal paraprotein species,[2]; listed as Genz-112638,none and prevents development of monoclonal paraproteins
same,M-protein (number of mice),[2]; [23],0
same,M-protein (number of mice),[2]; [24],0
same,M-protein (number of mice),[2]; [25],0
same,M-protein (number of mice),"[2]; all age groups, total 22 mice",0
same,mean plasma ceramide concentrations,[3],slightly increased
same,IC50,[4],24 nM
same,M protein (number of mice with monoclonal paraprotein or oligoclonal immunoglobulin secretion),[5],5
same,M protein (number of mice with monoclonal paraprotein or oligoclonal immunoglobulin secretion),[5]; listed as GENZ 112638,five
same,AKT protein kinase-mTOR signaling and cell-cycle control,[6],repress
same,glucosylceramide concentration in plasma,"[7]; GD mice with intermittent treatment for 10 months, listed as GENZ 112638",raised above the reference range
same,glucosylceramide concentration in plasma,"[7]; GD mice with intermittent treatment for 10 months, listed as Genz-112638",increased plasma concentration
same,plasma β-D-glucosylceramide concentration,"[7]; GD mice, 300 mg/kg daily, early continuous treatment",decreased
same,glucosylceramide concentration in plasma,"[7]; GD mice, after 10 months treatment, p<0.01",reduced
same,glucosylceramide/ceramide ratio,[7]; treated GD animals compared with untreated,markedly diminished
same,inhibitory properties towards glycosidases and other enzymes involved in sphingolipid metabolism,[8],minimal inhibitory properties
same,intracellular ceramide levels,[9],does not inhibit 1-O-acylceramide synthase or increase intracellular ceramide levels
same,plasma concentration of glucosylceramide,[10],decreased
same,total plasma immunoglobulin G concentrations,[11],decreased significantly
same,"occurrence of B cell lymphoma, myeloma or other tumours","[12]; 22 Gaucher mice exposed for 2-10 months, 300 mg/kg, early administration, listed as GENZ 112638, 300 mg/kg",No B cell lymphomas or other tumours were found; also recorded: completely prevented
same,Lymphoma (number of mice),[12]; [23],0
same,Lymphoma (number of mice),[12]; [24],0
same,Lymphoma (number of mice),[12]; [25],0
same,Lymphoma (number of mice),"[12]; all age groups, total 22 mice",0
same,plasma concentration of glucosylsphingosine,[13],decreased
same,plasma glucosylceramide (GL-1) concentration,[14],decrease the concentration of glucosylceramide
same,plasma glucosylceramide (GL-1) concentration,[14]; listed as GENZ 112638,dose-dependent decrease
same,glucosylceramide in tissues,[15]; 10 week-old and 7 month-old mice,dose-dependent reduction
same,infiltration of abnormal macrophages in tissues,[15],decreased infiltration
same,Lymphoid hyperplasia (number of mice),[16],4
same,Lymphoma/myeloma (number of mice),[16],1
same,Lymphoid hyperplasia (number of mice),[16]; listed as GENZ 112638,five
same,Lymphoma/myeloma (number of mice),[16]; listed as GENZ 112638,one and did not completely prevent
same,key clinical manifestations of the disease,[17],clearly improved
same,"Ki-67 staining (proliferation marker), spleen","[18]; GD mice treated for 10 months, listed as Genz-112638",less evident; also recorded: decreased population of lymphoid cells
same,lipid-engorged macrophages in tissue sections,"[18]; GD mice, liver and spleen",fewer lipid-engorged macrophages
same,pathological macrophages staining for the Mac 3 antigen,"[18]; tissues of GD mice, listed as GENZ 112638",markedly decreased or absent; also recorded: prevented the florid appearance of pathological macrophages
same,cellularity of the spleens,[18]; treated Gaucher mice,slight decrease
same,plasma-cell (CD138+) infiltration in the red pulp of the spleen,[18]; listed as GENZ 112638,less evident
same,plasma-cell (CD138+) infiltration in the red pulp of the spleen,[18]; listed as Genz-112638,decreased number of CD138^+ lymphocytes
same,"inflammatory changes in the liver, lungs and kidneys",[18]; treated versus untreated GD mice,reduced or absent
same,splenic architecture (H&E; B220/CD3 staining),"[18]; treated versus untreated GD mice, listed as GENZ 112638",preservation of the splenic architecture
same,splenic architecture (H&E; B220/CD3 staining),"[18]; treated versus untreated GD mice, listed as Genz-112638",preserved white pulp architecture
same,spleen and liver weights,[18]; treated versus untreated Gaucher mice,did not differ
same,animals withdrawn early from the study as a result of weight loss,[19],Two
same,safety and tolerability,[20],safe and tolerable
same,plasma glucosylsphingosine,[21]; listed as GENZ 112638,raised above the reference range
same,plasma glucosylsphingosine,[21]; listed as Genz-112638,not significantly different
same,plasma β-D-glucosylsphingosine concentration,"[21]; GD mice, 300 mg/kg daily, early continuous treatment, listed as GENZ 112638, 300 mg/kg",decreased; also recorded: notable decrease
same,reduction of plasma glucosylsphingosine,"[21]; GD mice, after 6 months of treatment, p<0.01",~5 fold
same,reduction of plasma glucosylsphingosine,"[21]; GD mice, after 9 months of treatment, p<0.05",~2 fold
same,inhibition of 1-O-acylceramide synthase,[22],does not inhibit 1-O-acylceramide synthase

# Reference: US20170065561A1, “METHODS OF CANCER THERAPY” (CAMBRIDGE ENTERPRISE LIMITED, priority 2014, published 2017)
